In ChEMBL document CHEMBL1201862, “PubChem BioAssay data set” (2004):
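Following 48 hours of exposure in 96-well plates, responses at five concentrations were used to interpolate endpoints linearly. At the GI50, growth is halved.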 The source made the active and inactive calls. Rule as the data show it: active = GI50 up to about 1.1 µM and inactive = higher.

How the values were obtained:
Experiment in all cases: NCI tumour cell line growth inhibition, 48 h
RXF 393 = tested on: RXF 393
MOLT-4 = tested on: MOLT-4
SNB-19 = tested on: SNB-19
HOP-62 = tested on: HOP-62
HOP-92 = tested on: HOP-92
EKVX = tested on: EKVX
SNB-75 = tested on: SNB-75
K562 = tested on: K562
U-251 = tested on: U-251
NCI-H226 = tested on: NCI-H226
ACHN = tested on: ACHN
SK-MEL-2 = tested on: SK-MEL-2
HCT-15 = tested on: HCT-15
KM12 = tested on: KM12
MCF7 = tested on: MCF7
MDA-MB-231 = tested on: MDA-MB-231
DU-145 = tested on: DU-145
CCRF-CEM = tested on: CCRF-CEM
NCI-H23 = tested on: NCI-H23
NCI-H522 = tested on: NCI-H522

O=C1NCCCc2nonc21 was tested, and the GI50 (RXF 393) was > 100 µM (inactive), the GI50 (MOLT-4) was > 100 µM (inactive) and the GI50 (SNB-19) was > 100 µM (inactive). For the same molecule, the GI50 (HOP-62) was > 100 µM (inactive), the GI50 (HOP-92) was > 100 µM (inactive) and the GI50 (EKVX) was > 100 µM (inactive). For the same molecule, the GI50 (SNB-75) was > 100 µM (inactive), the GI50 (K562) was > 100 µM (inactive) and the GI50 (U-251) was > 100 µM (inactive). For the same molecule, the GI50 (NCI-H226) was > 100 µM (inactive), the GI50 (ACHN) was > 100 µM (inactive) and the GI50 (SK-MEL-2) was > 100 µM (inactive). The GI50 (HCT-15) was over 100 µM, the GI50 (KM12) was > 100 µM (inactive) and the GI50 (MCF7) was > 100 µM (inactive). For the same molecule, the GI50 (MDA-MB-231) was > 100 µM (inactive), the GI50 (DU-145) was > 100 µM (inactive) and the GI50 (CCRF-CEM) was > 100 µM (inactive). The GI50 (NCI-H23) was > 100 µM (inactive).
In the case of O=S(=O)(O)c1cc(/N=N/c2cccc3ccccc23)c(O)c2ncccc12, the GI50 (RXF 393) is reported as 62.8 µM (inactive), the GI50 (MOLT-4) is reported as 26.9 µM (inactive) and the GI50 (SNB-19) is reported as > 100 µM (inactive). For the same molecule, the GI50 (HOP-62) was > 100 µM (inactive), the GI50 (HOP-92) was > 100 µM (inactive) and the GI50 (EKVX) was 30.5 µM (inactive). The GI50 (SNB-75) was 60.3 µM (inactive), the GI50 (K562) was 32.1 µM (inactive) and the GI50 (U-251) was 42 µM (inactive). The GI50 (NCI-H226) was 16 µM (inactive), the GI50 (ACHN) was 44 µM (inactive) and the GI50 (SK-MEL-2) was 82 µM (inactive). For the same molecule, the GI50 (HCT-15) was 47.2 µM, the GI50 (KM12) was 80.2 µM (inactive) and the GI50 (MCF7) was 23.7 µM (inactive). For the same molecule, the GI50 (MDA-MB-231) was > 100 µM (inactive), the GI50 (DU-145) was > 100 µM (inactive) and the GI50 (CCRF-CEM) was 24.7 µM (inactive). The GI50 (NCI-H23) was 38.9 µM (inactive).
With COC1CC2C=CC3C4OC2(/C(C)=C/C(C)C(C(C)O)OC1=O)C3C(O)C(C)C4OC(=O)c1ccc[nH]1 (stereo not drawn) the GI50 (MOLT-4) was 23.4 µM (inactive), the GI50 (SNB-19) was > 100 µM (inactive) and the GI50 (HOP-62) was > 100 µM (inactive). For the same molecule, the GI50 (HOP-92) was > 100 µM (inactive), the GI50 (EKVX) was 63.4 µM (inactive) and the GI50 (U-251) was 96.2 µM (inactive). For the same molecule, the GI50 (ACHN) was > 100 µM (inactive), the GI50 (SK-MEL-2) was > 100 µM (inactive) and the GI50 (HCT-15) was 92.5 µM. For the same molecule, the GI50 (KM12) was 21 µM (inactive), the GI50 (MCF7) was 94.4 µM (inactive) and the GI50 (MDA-MB-231) was > 100 µM (inactive). The GI50 (DU-145) was 82 µM (inactive), the GI50 (CCRF-CEM) was 25.9 µM (inactive) and the GI50 (NCI-H522) was > 100 µM (inactive). For the same molecule, the GI50 (NCI-H23) was > 100 µM (inactive).
With O=C(Nc1ccc(C(F)(F)F)cc1[N+](=O)[O-])c1cccnc1 the GI50 (MOLT-4) was 9.1 µM (inactive), the GI50 (SNB-19) was 9.48 µM (inactive) and the GI50 (HOP-62) was 54.5 µM (inactive). For the same molecule, the GI50 (EKVX) was 4.61 µM (inactive), the GI50 (SNB-75) was 3.72 µM (inactive) and the GI50 (K562) was 2.45 µM (inactive). For the same molecule, the GI50 (U-251) was 5 µM (inactive), the GI50 (NCI-H226) was 22.8 µM (inactive) and the GI50 (ACHN) was 7.01 µM (inactive). For the same molecule, the GI50 (SK-MEL-2) was 4.21 µM (inactive), the GI50 (HCT-15) was 2.91 µM and the GI50 (KM12) was 2.57 µM (inactive). The GI50 (MCF7) was 2.22 µM (inactive), the GI50 (MDA-MB-231) was 17.4 µM (inactive) and the GI50 (DU-145) was 7.08 µM (inactive). The GI50 (CCRF-CEM) was 4.85 µM (inactive), the GI50 (NCI-H522) was 3.94 µM (inactive) and the GI50 (NCI-H23) was 33.2 µM (inactive).
CC(=O)OCC(OC(C)=O)C(OC(C)=O)C(OC(C)=O)C(C=NN(C(C)=O)S(=O)(=O)c1ccc(/C=C2\NC(=O)NC2=O)cc1)OC(C)=O (stereo not drawn) was tested, and the GI50 (RXF 393) was > 100 µM (inactive), the GI50 (MOLT-4) was > 100 µM (inactive) and the GI50 (SNB-19) was > 100 µM (inactive). For the same molecule, the GI50 (HOP-62) was > 100 µM (inactive), the GI50 (EKVX) was > 100 µM (inactive) and the GI50 (SNB-75) was > 100 µM (inactive). For the same molecule, the GI50 (K562) was > 100 µM (inactive), the GI50 (U-251) was > 100 µM (inactive) and the GI50 (NCI-H226) was > 100 µM (inactive). For the same molecule, the GI50 (ACHN) was > 100 µM (inactive), the GI50 (SK-MEL-2) was > 100 µM (inactive) and the GI50 (HCT-15) was over 100 µM. The GI50 (KM12) was > 100 µM (inactive), the GI50 (MCF7) was > 100 µM (inactive) and the GI50 (MDA-MB-231) was > 100 µM (inactive). For the same molecule, the GI50 (DU-145) was > 100 µM (inactive), the GI50 (CCRF-CEM) was 84.3 µM (inactive) and the GI50 (NCI-H522) was > 100 µM (inactive). The GI50 (NCI-H23) was > 100 µM (inactive).
For COc1ccc2[nH]c3c(c2c1)COc1ccccc1C3=O, the GI50 (MOLT-4) was > 100 µM (inactive), the GI50 (SNB-19) was > 100 µM (inactive) and the GI50 (HOP-62) was > 100 µM (inactive). The GI50 (HOP-92) was > 100 µM (inactive), the GI50 (EKVX) was > 100 µM (inactive) and the GI50 (SNB-75) was 18.6 µM (inactive). For the same molecule, the GI50 (K562) was > 100 µM (inactive), the GI50 (U-251) was > 100 µM (inactive) and the GI50 (NCI-H226) was > 100 µM (inactive). For the same molecule, the GI50 (ACHN) was > 100 µM (inactive), the GI50 (SK-MEL-2) was 34.8 µM (inactive) and the GI50 (HCT-15) was over 100 µM. For the same molecule, the GI50 (KM12) was > 100 µM (inactive), the GI50 (MCF7) was > 100 µM (inactive) and the GI50 (MDA-MB-231) was > 100 µM (inactive). The GI50 (DU-145) was > 100 µM (inactive), the GI50 (CCRF-CEM) was > 100 µM (inactive) and the GI50 (NCI-H522) was > 100 µM (inactive). The GI50 (NCI-H23) was > 100 µM (inactive).
In the case of N#Cc1c2c([nH]c(=O)c1C#N)CCCC2, the GI50 (RXF 393) is reported as > 100 µM (inactive), the GI50 (MOLT-4) is reported as > 100 µM (inactive) and the GI50 (SNB-19) is reported as > 100 µM (inactive). For the same molecule, the GI50 (HOP-92) was 79.1 µM (inactive), the GI50 (EKVX) was > 100 µM (inactive) and the GI50 (SNB-75) was 82.8 µM (inactive). For the same molecule, the GI50 (K562) was > 100 µM (inactive), the GI50 (U-251) was > 100 µM (inactive) and the GI50 (NCI-H226) was > 100 µM (inactive). The GI50 (ACHN) was > 100 µM (inactive), the GI50 (SK-MEL-2) was > 100 µM (inactive) and the GI50 (HCT-15) was over 100 µM. The GI50 (KM12) was > 100 µM (inactive), the GI50 (MCF7) was > 100 µM (inactive) and the GI50 (MDA-MB-231) was > 100 µM (inactive). For the same molecule, the GI50 (DU-145) was > 100 µM (inactive), the GI50 (CCRF-CEM) was > 100 µM (inactive) and the GI50 (NCI-H23) was > 100 µM (inactive).
